Experimental data from US20250339402A1, “EFFECTIVE MEANS TO MODULATE NMDA RECEPTOR-MEDIATED TOXICITY” (FUNDAMENTAL PHARMA GMBH, priority 2022, published 2025).
Structures can show the parent of a compound that is named as a salt.

Each molecule was assayed on Primary mouse hippocampal neurons (assay: Excitotoxic (glutamate/NMDA-induced) cell death in primary neuronal cultures, protection index). Details: Mus musculus, Hippocampal neuron; third subset; excitotoxic cell death in primary neuronal cultures.
Format: cell-based
Experimental: Primary mouse hippocampal neurons were prepared as previously described (Bading & Greenberg, Science, 1991; 253: 912-914; Zhang et al, Neuron, 2007, 53: 549-562) and maintained in Neurobasal-A medium supplemented with 2% B27, 5 mM L-Glutamax, and 0.5% Penicillin/Streptomycin until challenged with NMDA on days in vitro (DIV) 10. Glutamate-induced cell death was analyzed in a real-time manner by monitoring nuclear localized mCherry with IncuCyte® S3 Live-Cell Analysis System (Sartorius AG, Germany). Primary neurons plated in 24 well plates were infected with rAAV-hSyn-mCherry on DIV3 and challenged with 1 μM or 20 μM glutamate on DIV10. All compounds were added to the culture 30 min prior to glutamate/NMDA insult. Images were acquired following the glutamate application for 24 h with a 2 h interval, where 9-16 images were obtained via a 20×objective for each condition at each time point. Cell deaths were quantified by analyzing the existence of nuclear localized mCheery via the Basic Analyzer with Incucyte® 2021 software, size and average intensity were used as exclusion criteria.
In order to evaluate the protective effects of various compounds, a quantification method was developed to determine each compound's protection index. The protection index (from 0.0 to 10.0) was calculated by the area above the curve (AAC) during a 24 h excitotoxic stimuli, where the cell survival was normalized to the 0 h (FIG. 2), following the equation: […]
Where AAC represents for each compound, AACbasal represents for the basal condition without excitotoxic insult, AACVeh represents for the vehicle control with excitotoxic insult. Based on the equation, vehicle (DMSO) has a protection index at 0.0 and compound P401 of WO 2020/079244 has a protection index at 6.0 (at 10 μM).
The inventors also performed experiments with Group A compounds at lower concentration in a 3-fold dilution matter ([…]: 3.0, 1.0, 0.3, 0.1, 0.03) and were able to achieve a similar protection effect as 10 μM compound P401, but at a lower concentration.
Work on NCCN(C1CC1)C(c1cccc(Br)c1F)C(F)(F)F (stereo not shown) [Compound 261A, N′-[1-(3-bromo-2-fluoro-phenyl)-2,2,2-trifluoro-ethyl]-N′-cyclopropyl-ethane-1,2-diamine hydrochloride] yielded an IC50 of 33 nM. For CCC(c1c(F)ccc(C#N)c1F)N(CCN)C1CC1 (stereo not shown) [Compound 259], the IC50 was 32 nM. NCCN(C1CC1)C(c1cccc(Cl)c1F)C1CCC1 (stereo not shown) [Compound 267, N^1-((3-chloro-2-fluorophenyl)(cyclobutyl)methyl)-N^1-cyclopropylethane-1,2-diamine hydrochloride] gave an IC50 of 130 nM. CC(c1scc(C#N)c1F)N(CCN)C1CC1 (stereo not shown) [Compound 297, 5-[1-[2-aminoethyl(cyclopropyl)amino]ethyl]-4-fluoro-thiophene-3-carbonitrile TFA salt] was tested, and the IC50 was 974 nM. With CC(c1cccc(Br)c1F)N(CCN)C1CC1 (stereo not shown) [Compound 191, N^1-(1-(3-bromo-2-fluorophenyl)ethyl)-N^1-cyclopropylethane-1,2-diamine hydrochloride] the IC50 was 230 nM. CC(c1cccc(F)c1Cl)N(CCN)C1CC1 (stereo not shown) [Compound 246] showed an IC50 of 500 nM. For NCCN(C1CC1)C(CC(F)(F)F)c1cccc(Cl)c1F (stereo not shown) [Compound 247, N^1-(1-(3-chloro-2-fluorophenyl)-3,3,3-trifluoropropyl)-N^1-cyclopropylethane-1,2-diamine hydrochloride], the IC50 was 10 nM. N#Cc1cccc(CN(CCN)C2CC2)c1F [Compound 219, 3-(((2-aminoethyl)(cyclopropyl)amino)methyl)-2-fluorobenzonitrile hydrochloride] showed an IC50 of 480 nM. Molecule CC(c1c(F)cccc1Cl)N(CCN)C1CC1 (stereo not shown) [Compound 186] has an IC50 of 800 nM. CC(c1cccc(Br)c1F)N(CCN)C1CCC1 (stereo not shown) [Compound 227B] showed an IC50 of 300 nM. CCC(c1cccc(Br)c1F)N(CCN)C1CC1 (stereo not shown) [Compound 258] was tested, and the IC50 was 13 nM. NCCN(Cc1cccc(Br)c1F)C1CC1 [Compound 219B] was tested, and the IC50 was 1450 nM. In the case of NCCN(C1CC1)C(c1cccc(Cl)c1F)C(F)(F)C(F)(F)F (stereo not shown) [Compound 270, N1-(1-(3-chloro-2-fluorophenyl)-2,2,3,3,3-pentafluoropropyl)-N1-cyclopropylethane-1,2-diamine TFA salt], the IC50 is reported as 13 nM. With CC(c1scc(Br)c1F)N(CCN)C1CC1 (stereo not shown) [Compound 297A, N′-[1-(4-bromo-3-fluoro-2-thienyl)ethyl]-N′-cyclopropyl-ethane-1,2-diamine TFA salt] the IC50 was 81 nM. Molecule N#Cc1cccc(C(CC(F)(F)F)N(CCN)C2CC2)c1F (stereo not shown) [Compound 280, 3-(1-((2-aminoethyl)(cyclopropyl)amino)-3,3,3-trifluoropropyl)-2-fluorobenzonitrile hydrochloride] has an IC50 of 36 nM. Molecule CCC(c1cccc(Cl)c1F)N(CCN)C1CC1 (stereo not shown) [Compound 224, N1-(1-(3-chloro-2-fluorophenyl)propyl)-N1-cyclopropylethane-1,2-diamine hydrochloride] has an IC50 of 26 nM. CCC(c1cccc(Cl)c1F)N(CCN)C1CC(F)(F)C1 (stereo not shown) [Compound 248] showed an IC50 of 120 nM. CC(C)C(c1cccc(C#N)c1F)N(CCN)C1CC1 (stereo not shown) [Compound 264, 3-(1-((2-aminoethyl)(cyclopropyl)amino)-2-methylpropyl)-2-fluorobenzonitrile TFA salt] was tested, and the IC50 was 3 nM.

Same assay, conditions: first subset; protection index from area above curve over 24 h glutamate/NMDA insult; compounds added 30 min before; 10 μM, Group A also at lower concentrations
For CCN(CCN)Cc1cccc(C#N)c1F [Compound 175, 3-(((2-aminoethyl)(ethyl)amino)methyl)-2-fluorobenzonitrile TFA salt], the “Biological Activity Rating” value was “A+ (With a protection index between 5.0 to 7.0, provides a comparable protection to compound P401 (10 μM) at 3.0 μM.)”. NCCN(Cc1cccc(Cl)c1F)C1CCC1 [Compound 159, N1-(3-chloro-2-fluorobenzyl)-N1-cyclobutylethane-1,2-diamine dihydrochloride] was tested, and the “Biological Activity Rating” value was “A++ (With a protection index between 5.0 to 7.0, provides a comparable protection to compound P401 (10 μM) at 1.0 μM.)”. With CSCCN(CCN)Cc1cccc(Cl)c1 [Compound 126] the “Biological Activity Rating” value was “B (With a protection index between 5.0 to 7.0, provides a comparable protection to compound P401 (10 μM) at 10 μM.)”. With CCN(CCN)Cc1c(F)ccc(Cl)c1F [Compound 92] the “Biological Activity Rating” value was “A (With a protection index over 7.0, provides a significantly better protection over compound P401 (10 μM) at 10 μM.)”. In the case of C=CCN(CCN)Cc1cccc(Cl)c1 [Compound 136], the “Biological Activity Rating” value is reported as “A (With a protection index over 7.0, provides a significantly better protection over compound P401 (10 μM) at 10 μM.)”. For CCN(CCN)Cc1cc(Cl)ccc1F [Compound 95], the “Biological Activity Rating” value was “B (With a protection index between 5.0 to 7.0, provides a comparable protection to compound P401 (10 μM) at 10 μM.)”. NCCN(Cc1cccc(Cl)c1F)CC(F)(F)F [Compound 119, N1-(3-chloro-2-fluorobenzyl)-N1-(2,2,2-trifluoroethyl)ethane-1,2-diamine] was tested, and the “Biological Activity Rating” value was “A (With a protection index over 7.0, provides a significantly better protection over compound P401 (10 μM) at 10 μM.)”. NCCN(Cc1cccc(Cl)c1F)CC1CC1 [Compound 153] was tested, and the “Biological Activity Rating” value was “C (With a protection index between 3.0 to 5.0, provides a significantly lower protection compared to compound P401 (10 μM) at 10 μM.)”. For NCCN(Cc1cccc(Cl)c1)CC1CCC1 [Compound 135], the “Biological Activity Rating” value was “B (With a protection index between 5.0 to 7.0, provides a comparable protection to compound P401 (10 μM) at 10 μM.)”. With CCN(CCN)Cc1cccc(Br)c1F [Compound 175A] the “Biological Activity Rating” value was “A (With a protection index over 7.0, provides a significantly better protection over compound P401 (10 μM) at 10 μM.)”. For NCCN(Cc1cccc(Cl)c1)C1CCC1 [Compound 123, N1-(3-chlorobenzyl)-N1-cyclobutylethane-1,2-diamine hydrochloride], the “Biological Activity Rating” value was “B (With a protection index between 5.0 to 7.0, provides a comparable protection to compound P401 (10 μM) at 10 μM.)”.

Same assay, conditions: second subset; protection index from area above curve over 24 h glutamate/NMDA insult; compounds added 30 min before; 10 μM, Group A also at lower concentrations
With C=CCN(CCN)C(C)c1cccc(Cl)c1F (stereo not shown) [Compound 172, N1-allyl-N1-(1-(3-chloro-2-fluorophenyl)ethyl)ethane-1,2-diamine hydrochloride] the “Biological Activity Rating” value was “A++ (With a protection index between 5.0 to 7.0, provides a comparable protection to compound P401 (10 μM) at 1.0 μM.)”. CCN(CCN)[C@@H](C)c1cccc(Cl)c1 [Compound 177, (S)—N1-(1-(3-chlorophenyl)ethyl)-N1-ethylethane-1,2-diamine dihydrochloride] was tested, and the “Biological Activity Rating” value was “A (With a protection index over 7.0, provides a significantly better protection over compound P401 (10 μM) at 10 μM.)”. With CC(c1cccc(Cl)c1F)N(CCN)C12CC(C1)C2 (stereo not shown) [Compound 182, N1-(bicyclo[1.1.1]pentan-1-yl)-N1-(1-(3-chloro-2-fluorophenyl)ethyl)ethane-1,2-diamine hydrochloride] the “Biological Activity Rating” value was “A+ (With a protection index between 5.0 to 7.0, provides a comparable protection to compound P401 (10 μM) at 3.0 μM.)”. With CCN(CCN)C(C)c1cccc(Cl)c1 (stereo not shown) [Compound 109] the “Biological Activity Rating” value was “A (With a protection index over 7.0, provides a significantly better protection over compound P401 (10 μM) at 10 μM.)”. With CSCCN(CCN)C(C)c1cccc(Cl)c1F (stereo not shown) [Compound 169, N1-(2-(methylthio)ethyl)-N1-(1-(3-chloro-2-fluorophenyl)ethyl) ethane-1,2-diamine] the “Biological Activity Rating” value was “B (With a protection index between 5.0 to 7.0, provides a comparable protection to compound P401 (10 μM) at 10 μM.)”. For CC(c1cc(F)cc(F)c1Cl)N(CCN)C1CC1 (stereo not shown) [Compound 188, N′-[1-(2-chloro-3,5-difluoro-phenyl)ethyl]-N′-cyclopropyl-ethane-1,2-diamine hydrochloride], the “Biological Activity Rating” value was “A++ (With a protection index between 5.0 to 7.0, provides a comparable protection to compound P401 (10 μM) at 1.0 μM.)”. For CC(c1cccc(Cl)c1F)N(CCN)C1CC1 (single isomer, unassigned; (-)) [Compound 220B, (−)-N1-(1-(3-chloro-2-fluorophenyl)ethyl)-N1-cyclopropylethane-1,2-diamine], the “Biological Activity Rating” value was “A++++ (With a protection index between 5.0 to 7.0, provides a comparable protection to compound P401 (10 μM) at 0.1 μM.)”. CC(c1cccc(Cl)c1F)N(CCN)C1CC1 (single isomer, unassigned; (+)) [Compound 220A, (+)-N1-(1-(3-chloro-2-fluorophenyl)ethyl)-N1-cyclopropylethane-1,2-diamine] was tested, and the “Biological Activity Rating” value was “A++ (With a protection index between 5.0 to 7.0, provides a comparable protection to compound P401 (10 μM) at 1.0 μM.)”.

Same assay, conditions: third subset; A++++ or above correlates with IC50; A++ and A+++ as defined in the source
CC(c1scc(C#N)c1F)N(CCN)C1CC1 (stereo not shown) [Compound 297, 5-[1-[2-aminoethyl(cyclopropyl)amino]ethyl]-4-fluoro-thiophene-3-carbonitrile TFA salt] was tested, and the “Biological Activity Rating” value was “A+++”. With CC(c1cccc(F)c1Cl)N(CCN)C1CC1 (stereo not shown) [Compound 246] the “Biological Activity Rating” value was “A+++”. N#Cc1cccc(CN(CCN)C2CC2)c1F [Compound 219, 3-(((2-aminoethyl)(cyclopropyl)amino)methyl)-2-fluorobenzonitrile hydrochloride] was tested, and the “Biological Activity Rating” value was “A+++”. CC(c1c(F)cccc1Cl)N(CCN)C1CC1 (stereo not shown) [Compound 186] was tested, and the “Biological Activity Rating” value was “A+++”. For CC(c1cccc(Br)c1F)N(CCN)C1CCC1 (stereo not shown) [Compound 227B], the “Biological Activity Rating” value was “A+++”. NCCN(Cc1cccc(Br)c1F)C1CC1 [Compound 219B] was tested, and the “Biological Activity Rating” value was “A++”.
